Source: ChEMBL document CHEMBL4800730 (2021)
Activity calls are given as the source filed them. No cut-off for these calls is given here.

Experiments:
[1] = target: Sodium-dependent dopamine transporter (Homo sapiens, UniProt Q01959); assay: GPCRScan assay: inhibition of DAT; parameters: radioligand conc. used [nm] 3.6 – 16.0, parental cells stable HEK
[2] = target: Alpha-1A adrenergic receptor (Homo sapiens, UniProt P35348); assay: GPCRScan assay: inhibition of Alpha1A; parameters: radioligand conc. used [nm] 0.2 - 1.0, parental cells stable HEK
[3] = GPCRScan assay: inhibition of GABA/PBR; parameters: species or system Rattus norvegicus; radioligand conc. used [nm] 0.3 – 2.0, parental cells brain tissue
T47D = assay: CellTiter-Glo luminescent cell viability assay (CTG) with T-47D cells; type: functional, cell-based; conditions: Homo sapiens
MCF7 = assay: CellTiter-Glo luminescent cell viability assay (CTG) with MCF-7 cells; type: functional, cell-based; conditions: Homo sapiens
[4] = target: ALK tyrosine kinase receptor (Homo sapiens) (UniProt Q9UM73); assay: ALK SelectScreen Kinase panel (LifeTechnologies); conditions: Compound concentration 1.0 uM
[5] = target: Calcium/calmodulin-dependent protein kinase type IV (Homo sapiens) (UniProt Q16566); assay: CAMK4 (CaMKIV) SelectScreen Kinase panel (LifeTechnologies); conditions: Compound concentration 1.0 uM
[6] = target: Cyclin-dependent kinase 2/cyclin A (Homo sapiens) (UniProt P24941+P20248+P78396); assay: CDK2/cyclin A SelectScreen Kinase panel (LifeTechnologies); type: protein-complex assay; conditions: Compound concentration 1.0 uM
[7] = target: Serine/threonine-protein kinase DCLK2 (Homo sapiens) (UniProt Q8N568); assay: DCAMKL2 (DCK2) SelectScreen Kinase panel (LifeTechnologies); conditions: Compound concentration 1.0 uM
[8] = target: DNA-dependent protein kinase catalytic subunit (Homo sapiens) (UniProt P78527); assay: DNA-PK SelectScreen Kinase panel (LifeTechnologies); conditions: Compound concentration 1.0 uM
[9] = target: Serine/threonine-protein kinase mTOR (Homo sapiens) (UniProt P42345); assay: FRAP1 (mTOR) SelectScreen Kinase panel (LifeTechnologies); conditions: Compound concentration 1.0 uM
[10] = target: G protein-coupled receptor kinase 6 (Homo sapiens) (UniProt P43250); assay: GRK6 SelectScreen Kinase panel (LifeTechnologies); conditions: Compound concentration 1.0 uM
G protein-coupled receptor kinase 6 (Homo sapiens), sequence (P43250 whole entry, looked up): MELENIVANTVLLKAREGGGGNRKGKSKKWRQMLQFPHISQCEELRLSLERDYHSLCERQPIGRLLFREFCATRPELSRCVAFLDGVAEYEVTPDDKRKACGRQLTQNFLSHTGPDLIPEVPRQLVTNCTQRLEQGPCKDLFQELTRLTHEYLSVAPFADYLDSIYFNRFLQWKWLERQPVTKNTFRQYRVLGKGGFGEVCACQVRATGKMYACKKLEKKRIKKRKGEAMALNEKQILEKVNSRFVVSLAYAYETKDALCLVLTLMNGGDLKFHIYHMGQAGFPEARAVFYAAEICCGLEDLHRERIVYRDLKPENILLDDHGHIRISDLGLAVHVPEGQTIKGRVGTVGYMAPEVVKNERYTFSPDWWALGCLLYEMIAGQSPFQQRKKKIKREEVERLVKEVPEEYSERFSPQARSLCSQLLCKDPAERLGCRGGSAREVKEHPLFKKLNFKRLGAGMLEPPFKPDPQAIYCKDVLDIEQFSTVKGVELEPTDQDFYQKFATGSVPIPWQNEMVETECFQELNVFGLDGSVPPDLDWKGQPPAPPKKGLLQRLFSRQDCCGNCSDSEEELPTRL

[11] = target: Insulin-like growth factor 1 receptor (Homo sapiens) (UniProt P08069); assay: IGF1R SelectScreen Kinase panel (LifeTechnologies); conditions: Compound concentration 1.0 uM
[12] = target: Mast/stem cell growth factor receptor Kit (Homo sapiens) (UniProt P10721); assay: KIT SelectScreen Kinase panel (LifeTechnologies); conditions: Compound concentration 1.0 uM
[13] = target: Mitogen-activated protein kinase kinase kinase kinase 5 (Homo sapiens) (UniProt Q9Y4K4); assay: MAP4K5 (KHS1) SelectScreen Kinase panel (LifeTechnologies); conditions: Compound concentration 1.0 uM
[14] = target: Serine/threonine-protein kinase Nek1 (Homo sapiens) (UniProt Q96PY6); assay: NEK1 SelectScreen Kinase panel (LifeTechnologies); conditions: Compound concentration 1.0 uM
[15] = target: Serine/threonine-protein kinase N1 (Homo sapiens) (UniProt Q16512); assay: PKN1 (PRK1) SelectScreen Kinase panel (LifeTechnologies); conditions: Compound concentration 1.0 uM
[16] = target: Protein kinase C alpha type (Homo sapiens) (UniProt P17252); assay: PRKCA (PKC alpha) SelectScreen Kinase panel (LifeTechnologies); conditions: Compound concentration 1.0 uM
[17] = target: Protein kinase C beta type (Homo sapiens) (UniProt P05771); assay: PRKCB1 (PKC beta I) SelectScreen Kinase panel (LifeTechnologies); conditions: Compound concentration 1.0 uM
[18] = target: Protein kinase C gamma type (Homo sapiens) (UniProt P05129); assay: PRKCG (PKC gamma) SelectScreen Kinase panel (LifeTechnologies); conditions: Compound concentration 1.0 uM
[19] = target: Protein kinase C iota type (Homo sapiens) (UniProt P41743); assay: PRKCI (PKC iota) SelectScreen Kinase panel (LifeTechnologies); conditions: Compound concentration 1.0 uM
[20] = target: Protein kinase C zeta type (Homo sapiens) (UniProt Q05513); assay: PRKCZ (PKC zeta) SelectScreen Kinase panel (LifeTechnologies); conditions: Compound concentration 1.0 uM
[21] = target: Serine/threonine-protein kinase D1 (Homo sapiens) (UniProt Q15139); assay: PRKD1 (PKC mu) SelectScreen Kinase panel (LifeTechnologies); conditions: Compound concentration 1.0 uM
[22] = target: cGMP-dependent protein kinase 2 (Homo sapiens) (UniProt Q13237); assay: PRKG2 (PKG2) SelectScreen Kinase panel (LifeTechnologies); conditions: Compound concentration 1.0 uM
[23] = target: Focal adhesion kinase 1 (Homo sapiens) (UniProt Q05397); assay: PTK2 (FAK) SelectScreen Kinase panel (LifeTechnologies); conditions: Compound concentration 1.0 uM
[24] = target: Proto-oncogene tyrosine-protein kinase receptor Ret (Homo sapiens) (UniProt P07949); assay: RET SelectScreen Kinase panel (LifeTechnologies); conditions: Compound concentration 1.0 uM
[25] = target: Rho-associated protein kinase 1 (Homo sapiens) (UniProt Q13464); assay: ROCK1 SelectScreen Kinase panel (LifeTechnologies); conditions: Compound concentration 1.0 uM
[26] = target: Ribosomal protein S6 kinase alpha-5 (Homo sapiens) (UniProt O75582); assay: RPS6KA5 (MSK1) SelectScreen Kinase panel (LifeTechnologies); conditions: Compound concentration 1.0 uM
[27] = target: Serine/threonine-protein kinase Sgk1 (Homo sapiens) (UniProt O00141); assay: SGK (SGK1) SelectScreen Kinase panel (LifeTechnologies); conditions: Compound concentration 1.0 uM
Serine/threonine-protein kinase Sgk1 (Homo sapiens), sequence (O00141 whole entry): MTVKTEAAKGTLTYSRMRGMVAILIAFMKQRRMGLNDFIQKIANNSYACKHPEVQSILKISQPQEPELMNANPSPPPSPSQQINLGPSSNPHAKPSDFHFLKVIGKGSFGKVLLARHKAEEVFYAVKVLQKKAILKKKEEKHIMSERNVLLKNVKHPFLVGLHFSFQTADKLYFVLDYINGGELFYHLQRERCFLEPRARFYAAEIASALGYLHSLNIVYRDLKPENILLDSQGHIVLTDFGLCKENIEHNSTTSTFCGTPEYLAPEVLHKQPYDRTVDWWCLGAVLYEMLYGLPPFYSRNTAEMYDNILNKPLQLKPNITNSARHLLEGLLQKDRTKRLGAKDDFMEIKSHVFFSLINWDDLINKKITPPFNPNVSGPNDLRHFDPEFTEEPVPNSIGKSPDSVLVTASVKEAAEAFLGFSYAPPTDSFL

[28] = target: Serine/threonine-protein kinase Sgk2 (Homo sapiens) (UniProt Q9HBY8); assay: SGK2 SelectScreen Kinase panel (LifeTechnologies); conditions: Compound concentration 1.0 uM
Serine/threonine-protein kinase Sgk2 (Homo sapiens), sequence (Q9HBY8 whole entry): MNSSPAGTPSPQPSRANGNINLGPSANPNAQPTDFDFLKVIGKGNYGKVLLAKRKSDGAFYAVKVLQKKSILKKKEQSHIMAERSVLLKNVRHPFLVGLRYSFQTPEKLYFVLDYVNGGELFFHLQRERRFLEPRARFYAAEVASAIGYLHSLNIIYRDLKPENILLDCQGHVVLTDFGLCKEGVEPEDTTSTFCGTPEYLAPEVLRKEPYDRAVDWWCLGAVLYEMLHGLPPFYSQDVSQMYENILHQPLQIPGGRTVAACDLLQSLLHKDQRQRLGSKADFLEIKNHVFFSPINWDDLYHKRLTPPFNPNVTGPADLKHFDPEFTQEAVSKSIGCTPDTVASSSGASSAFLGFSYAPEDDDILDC

[29] = target: 5-hydroxytryptamine receptor 1B (Homo sapiens) (UniProt P28222); conditions: Compound concentration 10.0 uM
[30] = target: 5-hydroxytryptamine receptor 1E (Homo sapiens) (UniProt P28566); conditions: Compound concentration 10.0 uM
5-hydroxytryptamine receptor 1E (Homo sapiens), sequence (P28566 whole entry): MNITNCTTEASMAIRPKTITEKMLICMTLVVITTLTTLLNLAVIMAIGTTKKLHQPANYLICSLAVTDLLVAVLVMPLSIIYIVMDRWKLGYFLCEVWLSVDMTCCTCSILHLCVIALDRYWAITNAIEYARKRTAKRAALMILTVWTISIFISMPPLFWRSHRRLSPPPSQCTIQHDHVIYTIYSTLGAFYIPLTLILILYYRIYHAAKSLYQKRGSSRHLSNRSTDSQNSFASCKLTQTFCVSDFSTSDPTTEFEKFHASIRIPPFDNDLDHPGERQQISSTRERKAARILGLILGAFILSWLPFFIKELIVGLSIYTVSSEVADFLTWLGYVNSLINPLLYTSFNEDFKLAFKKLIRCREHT

[31] = target: 5-hydroxytryptamine receptor 3A (Homo sapiens) (UniProt P46098); conditions: Compound concentration 10.0 uM
[32] = target: 5-hydroxytryptamine receptor 5A (Homo sapiens) (UniProt P47898); conditions: Compound concentration 10.0 uM
[33] = target: D(3) dopamine receptor (Homo sapiens) (UniProt P35462); conditions: Compound concentration 10.0 uM
[34] = target: D(4) dopamine receptor (Homo sapiens) (UniProt P21917); conditions: Compound concentration 10.0 uM
D(4) dopamine receptor (Homo sapiens), sequence (P21917 whole entry): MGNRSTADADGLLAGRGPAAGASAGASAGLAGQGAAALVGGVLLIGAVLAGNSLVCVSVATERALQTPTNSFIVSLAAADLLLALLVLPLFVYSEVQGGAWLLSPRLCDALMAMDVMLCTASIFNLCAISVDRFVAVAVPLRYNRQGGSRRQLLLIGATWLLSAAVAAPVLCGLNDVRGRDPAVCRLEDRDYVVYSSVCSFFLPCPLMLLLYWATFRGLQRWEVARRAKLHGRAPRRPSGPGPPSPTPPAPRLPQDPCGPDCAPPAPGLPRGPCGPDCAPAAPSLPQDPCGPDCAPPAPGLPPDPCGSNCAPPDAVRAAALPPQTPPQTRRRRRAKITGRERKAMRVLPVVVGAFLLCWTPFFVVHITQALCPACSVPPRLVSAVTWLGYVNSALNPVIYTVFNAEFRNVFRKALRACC

[35] = target: Sodium-dependent serotonin transporter (Homo sapiens) (UniProt P31645); conditions: Compound concentration 10.0 uM
[36] = target: Histamine H3 receptor (Homo sapiens) (UniProt Q9Y5N1); conditions: Compound concentration 10.0 uM
[37] = target: Histamine H4 receptor (Homo sapiens) (UniProt Q9H3N8); conditions: Compound concentration 10.0 uM
Histamine H4 receptor (Homo sapiens), sequence (Q9H3N8 whole entry): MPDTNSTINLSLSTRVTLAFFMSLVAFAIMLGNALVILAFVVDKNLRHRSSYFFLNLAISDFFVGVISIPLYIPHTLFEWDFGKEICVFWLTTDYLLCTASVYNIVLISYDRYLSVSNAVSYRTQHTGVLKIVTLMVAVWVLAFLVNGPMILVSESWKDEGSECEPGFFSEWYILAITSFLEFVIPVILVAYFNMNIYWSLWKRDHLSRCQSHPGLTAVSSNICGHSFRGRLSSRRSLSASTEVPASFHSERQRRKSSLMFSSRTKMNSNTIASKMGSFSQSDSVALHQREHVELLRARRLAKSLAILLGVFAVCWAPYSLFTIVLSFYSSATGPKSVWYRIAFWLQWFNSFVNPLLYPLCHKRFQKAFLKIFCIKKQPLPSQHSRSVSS

[38] = target: Alpha-1B adrenergic receptor (Homo sapiens) (UniProt P35368); conditions: Compound concentration 10.0 uM
[39] = target: Beta-1 adrenergic receptor (Homo sapiens) (UniProt P08588); conditions: Compound concentration 10.0 uM
Beta-1 adrenergic receptor (Homo sapiens), sequence (P08588 whole entry, looked up): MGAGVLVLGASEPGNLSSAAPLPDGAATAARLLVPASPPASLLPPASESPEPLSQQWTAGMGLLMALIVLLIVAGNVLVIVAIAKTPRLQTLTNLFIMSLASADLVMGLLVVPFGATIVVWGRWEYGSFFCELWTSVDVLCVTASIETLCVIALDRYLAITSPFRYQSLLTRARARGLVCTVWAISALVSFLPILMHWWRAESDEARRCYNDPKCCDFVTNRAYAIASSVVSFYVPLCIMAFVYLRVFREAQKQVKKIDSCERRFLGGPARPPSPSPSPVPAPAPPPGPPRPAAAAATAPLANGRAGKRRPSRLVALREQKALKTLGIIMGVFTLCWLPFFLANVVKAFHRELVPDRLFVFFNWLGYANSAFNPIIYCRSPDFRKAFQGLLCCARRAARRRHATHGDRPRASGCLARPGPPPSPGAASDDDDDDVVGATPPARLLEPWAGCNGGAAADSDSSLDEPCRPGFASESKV

[40] = target: Muscarinic acetylcholine receptor M3 (Homo sapiens) (UniProt P20309); conditions: Compound concentration 10.0 uM
Muscarinic acetylcholine receptor M3 (Homo sapiens), sequence (P20309 whole entry, looked up): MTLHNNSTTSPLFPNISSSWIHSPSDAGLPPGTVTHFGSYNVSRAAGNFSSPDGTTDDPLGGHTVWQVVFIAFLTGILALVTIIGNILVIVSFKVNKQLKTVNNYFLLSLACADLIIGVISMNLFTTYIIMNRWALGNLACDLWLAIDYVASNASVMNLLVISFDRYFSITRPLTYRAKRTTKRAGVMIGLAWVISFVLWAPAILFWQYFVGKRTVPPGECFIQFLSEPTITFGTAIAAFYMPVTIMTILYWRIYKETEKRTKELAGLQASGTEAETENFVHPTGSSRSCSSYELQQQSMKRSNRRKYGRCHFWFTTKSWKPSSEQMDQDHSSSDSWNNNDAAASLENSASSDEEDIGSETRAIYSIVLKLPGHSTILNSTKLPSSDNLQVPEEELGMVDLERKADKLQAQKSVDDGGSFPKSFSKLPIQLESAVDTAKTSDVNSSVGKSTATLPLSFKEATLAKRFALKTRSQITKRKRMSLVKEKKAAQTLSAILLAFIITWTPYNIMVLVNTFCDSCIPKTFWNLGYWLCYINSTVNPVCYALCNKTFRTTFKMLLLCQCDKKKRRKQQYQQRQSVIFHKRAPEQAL

[41] = target: Muscarinic acetylcholine receptor M5 (Homo sapiens) (UniProt P08912); conditions: Compound concentration 10.0 uM
[42] = target: GABA-A receptor; anion channel (Rattus norvegicus) (UniProt O09028+P15431+P18506+P18508+P19969+P20236+P23574+P23576+P28471+P28473+P30191+P62813+P63079+P63138+Q91ZM7+Q9ES14); conditions: Compound concentration 10.0 uM

Sodium-dependent dopamine transporter, sequence (Q01959 whole entry): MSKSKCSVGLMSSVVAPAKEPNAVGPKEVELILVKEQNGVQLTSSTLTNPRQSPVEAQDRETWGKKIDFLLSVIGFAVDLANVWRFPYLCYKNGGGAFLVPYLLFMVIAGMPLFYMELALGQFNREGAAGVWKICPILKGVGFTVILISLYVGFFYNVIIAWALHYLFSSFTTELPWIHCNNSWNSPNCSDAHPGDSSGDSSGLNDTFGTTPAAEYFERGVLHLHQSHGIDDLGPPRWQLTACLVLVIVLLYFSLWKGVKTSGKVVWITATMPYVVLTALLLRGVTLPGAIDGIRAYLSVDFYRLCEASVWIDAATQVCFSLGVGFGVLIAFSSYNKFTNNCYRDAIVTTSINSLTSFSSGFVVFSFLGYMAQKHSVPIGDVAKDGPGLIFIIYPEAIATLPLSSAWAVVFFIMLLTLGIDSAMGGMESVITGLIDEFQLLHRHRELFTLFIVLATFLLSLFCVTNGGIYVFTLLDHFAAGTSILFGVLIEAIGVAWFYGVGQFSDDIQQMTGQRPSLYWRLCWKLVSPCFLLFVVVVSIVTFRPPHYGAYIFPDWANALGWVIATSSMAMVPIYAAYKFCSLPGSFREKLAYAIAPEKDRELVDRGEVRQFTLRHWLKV

C=CC(=O)Nc1ccc2[nH]c(=O)n(C3CCN(Cc4ccc(-c5nc6cc[nH]c(=O)c6cc5-c5ccccc5)cc4)CC3)c2c1 [Borussertib]
Ki ([1]; read-out: Ki): 3660 nM
Ki ([1]; read-out: pKi (converted)): 3630 nM
Ki [2]: 2660 nM
Ki [3]: 57.3 nM
pKi [3]: 7.24
EC50 (T47D): 50 nM (active)
EC50 (MCF7): 280 nM (active)
inhibition [4]: -2%
inhibition [5]: 12%
inhibition [6]: 1%
inhibition [7]: -2%
inhibition [8]: 0%
inhibition [9]: -9%
inhibition [10]: 2%
inhibition [11]: -4%
inhibition [12]: 8%
inhibition [13]: 37%
inhibition [14]: 8%
inhibition [15]: -4%
inhibition [16]: 10%
inhibition [17]: -7%
inhibition [18]: 17%
inhibition [19]: 6%
inhibition [20]: -1%
inhibition [21]: 10%
inhibition [22]: 2%
inhibition [23]: 4%
inhibition [24]: 7%
inhibition [25]: 9%
inhibition [26]: 2%
inhibition [27]: 20%
inhibition [28]: 6%
inhibition [29]: 35.6%
inhibition [30]: 18%
inhibition [31]: 30.2%
inhibition [32]: 19.4%
inhibition [33]: 20.9%
inhibition [34]: 10%
inhibition [35]: 2.16%
inhibition [36]: 6.51%
inhibition [37]: 31.3%
inhibition [38]: 52.3%
inhibition [39]: -0.86%
inhibition [40]: 5.83%
inhibition [41]: 11.8%
inhibition [42]: 12.3%
